Where a SMILES comes first, the peptide text is derived from it. [ ]: non-standard residue; d: D form.

The term Ki denotes a dissociation constant, usually derived from enzyme kinetics or from competition with a known ligand.

The first assay deals with T1, PSD-95-PDZ2 (Homo sapiens, UniProt P78352).
T1 construct: 7xHis (N); made in house; host or cells: Escherichia coli B21 pLys (for the mutants, 'as previously described')
T1 sequence (P78352 160-246 limits assumed): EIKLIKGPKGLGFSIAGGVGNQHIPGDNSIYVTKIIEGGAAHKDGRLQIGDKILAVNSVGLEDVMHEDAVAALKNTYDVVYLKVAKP
The assay is described as follows: Fluorescence polarization (FP) competition assay against cyclic nNOS TAMRA probe. The class given is binding. Particulars: FP competition, cyclic nNOS TAMRA probe; mean of triplicates; N.B. = not binding. On the technique in general: In fluorescence polarisation assays a small probe gives low polarisation when free and higher when bound to something large.
As for “87 (THLXTTFTGDGTPKTIRVTQPGQ; cyclized peptide; (4)..(4) X is N-Me-E; (21)..(21) is D-AA) [compound 87]”, the Ki entry is “N.B”.
The same measure, in the same setting: for “85 (TXLETTFTGDGTPKTIRVTQPGQ; cyclized peptide; (2)..(2) X is N-Me-H; (21)..(21) is D-AA) [compound 85]” the value was “N.B”; for “90 (THLETTXTGDGTPKTIRVTQPGQ; cyclized peptide; (7)..(7) X is N-Me-F; (21)..(21) is D-AA) [compound 90]”, “N.B”.

Staying with this assay, now noted: FP competition, cyclic nNOS TAMRA probe; mean of triplicates; N.B. = not binding; read-out: Ki.
Turning to `CC[C@H](C)[C@@H]1NC(=O)[C@H]([C@@H](C)O)NC(=O)[C@H](CCCCN)NC(=O)[C@@H]2CCCN2C(=O)[C@H]([C@@H](C)O)NC(=O)CNC(=O)[C@H](CCCNC(=N)N)NC(=O)CNC(=O)[C@H]([C@@H](C)O)NC(=O)[C@H](Cc2ccccc2)NC(=O)[C@H]([C@@H](C)O)NC(=O)[C@H]([C@@H](C)O)NC(=O)[C@H](CCC(=O)O)NC(=O)[C@H](CC(C)C)NC(=O)[C@H](Cc2c[nH]cn2)NC(=O)[C@H]([C@@H](C)O)NC(=O)[C@H](CCC(N)=O)NC(=O)CNC(=O)[C@H]2CCCN2C(=O)[C@H](CCC(N)=O)NC(=O)[C@H]([C@@H](C)O)NC(=O)[C@H](C(C)C)NC(=O)[C@H](CCCNC(=N)N)NC1=O` [compound 34] (cyclo(THLETTFTGRGTPKTIRVTQ[dP]GQ)), the Ki was 0.99 µM.
The same measure, in the same setting: for `CC[C@H](C)[C@@H]1NC(=O)[C@H]([C@@H](C)O)NC(=O)[C@H](CCCCN)NC(=O)[C@@H]2CCCN2C(=O)[C@H]([C@@H](C)O)NC(=O)CNC(=O)[C@H](CC(=O)O)NC(=O)CNC(=O)[C@H]([C@@H](C)O)NC(=O)[C@H](Cc2ccccc2)NC(=O)[C@H]([C@@H](C)O)NC(=O)[C@H]([C@@H](C)O)NC(=O)[C@H](CCC(=O)O)NC(=O)[C@H](CC(C)C)NC(=O)[C@H](Cc2c[nH]cn2)NC(=O)[C@H]([C@@H](C)O)NC(=O)[C@H](CCC(N)=O)NC(=O)CNC(=O)[C@H]2CCCN2C(=O)[C@H](CCC(N)=O)NC(=O)[C@H]([C@@H](C)O)NC(=O)[C@H](C(C)C)NC(=O)[C@@H](CCCNC(=N)N)NC1=O` [compound 126] the value was 9 µM.
On to `CC[C@H](C)[C@@H]1NC(=O)[C@H]([C@@H](C)O)NC(=O)[C@H](CCCCN)N(C)C(=O)[C@@H]2CCCN2C(=O)[C@H]([C@@H](C)O)NC(=O)CNC(=O)[C@H](CC(=O)O)NC(=O)CNC(=O)[C@H]([C@@H](C)O)NC(=O)[C@H](Cc2ccccc2)NC(=O)[C@H]([C@@H](C)O)NC(=O)[C@H]([C@@H](C)O)NC(=O)[C@H](CCC(=O)O)NC(=O)[C@H](CC(C)C)NC(=O)[C@H](Cc2c[nH]cn2)NC(=O)[C@H]([C@@H](C)O)NC(=O)[C@H](CCC(N)=O)NC(=O)CNC(=O)[C@H]2CCCN2C(=O)[C@H](CCC(N)=O)NC(=O)[C@H]([C@@H](C)O)NC(=O)[C@H](C(C)C)NC(=O)[C@H](CCCNC(=N)N)NC1=O` [compound 96], for which the Ki amounted to 0.48 µM.
On the same count and under the same terms, with `CC[C@H](C)[C@@H]1NC(=O)[C@H]([C@@H](C)O)NC(=O)[C@H](CCCCN)NC(=O)[C@@H]2CCCN2C(=O)[C@H](CC(=O)O)NC(=O)CNC(=O)[C@H](CC(=O)O)NC(=O)CNC(=O)[C@H](Cc2c[nH]c3ccccc23)NC(=O)[C@H](Cc2ccccc2)NC(=O)[C@H]([C@@H](C)O)NC(=O)[C@H]([C@@H](C)O)NC(=O)[C@H](CCC(=O)O)NC(=O)[C@H](CC(C)C)NC(=O)[C@H](Cc2c[nH]cn2)NC(=O)[C@H]([C@@H](C)O)NC(=O)[C@H](CCC(N)=O)NC(=O)CNC(=O)[C@H]2CCCN2C(=O)[C@H](CCC(N)=O)NC(=O)[C@H]([C@@H](C)O)NC(=O)[C@H](C(C)C)NC(=O)[C@H](CCCNC(=N)N)NC1=O` [compound 130] (cyclo(THLETTFWGDGDPKTIRVTQ[dP]GQ)) the figure was 0.65 µM.
On the same count and under the same terms, with `CC[C@H](C)[C@@H]1NC(=O)[C@H]([C@@H](C)O)NC(=O)[C@H](CCCCN)NC(=O)[C@@H]2CCCN2C(=O)[C@H]([C@@H](C)O)NC(=O)CNC(=O)[C@H](CC(=O)O)NC(=O)CNC(=O)[C@H]([C@@H](C)O)NC(=O)[C@H](Cc2ccccc2)NC(=O)[C@H]([C@@H](C)O)NC(=O)[C@H]([C@@H](C)O)NC(=O)[C@H](CCC(=O)O)NC(=O)[C@H](CC(C)C)NC(=O)[C@@H](Cc2c[nH]cn2)NC(=O)[C@H]([C@@H](C)O)NC(=O)[C@H](CCC(N)=O)NC(=O)CNC(=O)[C@H]2CCCN2C(=O)[C@H](CCC(N)=O)NC(=O)[C@H]([C@@H](C)O)NC(=O)[C@H](C(C)C)NC(=O)[C@H](CCCNC(=N)N)NC1=O` [compound 113] the figure was 13.1 µM.
The same measure, in the same setting: with `CC[C@H](C)[C@@H]1NC(=O)[C@H]([C@@H](C)O)NC(=O)[C@H](CCCCN)NC(=O)[C@@H]2CCCN2C(=O)[C@H]([C@@H](C)O)NC(=O)CNC(=O)[C@H](CC(=O)O)NC(=O)CNC(=O)[C@H]([C@@H](C)O)NC(=O)[C@H](Cc2ccccc2)NC(=O)[C@H]([C@@H](C)O)NC(=O)[C@H]([C@@H](C)O)NC(=O)[C@H](CCC(=O)O)NC(=O)[C@H](CC(C)C)NC(=O)[C@H](Cc2c[nH]cn2)NC(=O)[C@@H]([C@H](C)O)NC(=O)[C@H](CCC(N)=O)NC(=O)CNC(=O)[C@H]2CCCN2C(=O)[C@H](CCC(N)=O)NC(=O)[C@H]([C@@H](C)O)NC(=O)[C@H](C(C)C)NC(=O)[C@H](CCCNC(=N)N)NC1=O` [compound 112] the figure was 14.6 µM; with `CC[C@H](C)[C@@H]1NC(=O)[C@H]([C@@H](C)O)NC(=O)[C@H](CCCCN)NC(=O)[C@@H]2CCCN2C(=O)[C@H]([C@@H](C)O)NC(=O)CNC(=O)[C@H](CC(=O)O)NC(=O)CNC(=O)[C@H]([C@@H](C)O)NC(=O)[C@H](Cc2ccccc2)NC(=O)[C@H]([C@@H](C)O)NC(=O)[C@H]([C@@H](C)O)NC(=O)[C@H](CCC(=O)O)NC(=O)[C@H](CC(C)C)NC(=O)[C@H](Cc2c[nH]cn2)NC(=O)[C@H]([C@@H](C)O)N(C)C(=O)[C@H](CCC(N)=O)NC(=O)CNC(=O)[C@H]2CCCN2C(=O)[C@H](CCC(N)=O)NC(=O)[C@H]([C@@H](C)O)NC(=O)[C@H](C(C)C)NC(=O)[C@H](CCCNC(=N)N)NC1=O` [compound 84], 4.8 µM.

Staying with this assay, now noted: FP competition, relative to unsubstituted cyclic peptide.
Take `CC[C@H](C)[C@@H]1NC(=O)[C@H]([C@@H](C)O)NC(=O)[C@H](CCCCN)NC(=O)[C@@H]2CCCN2C(=O)[C@H]([C@@H](C)O)NC(=O)CNC(=O)[C@H](CC(=O)O)NC(=O)CNC(=O)[C@H]([C@@H](C)O)NC(=O)[C@H](Cc2ccccc2)NC(=O)[C@H]([C@@H](C)O)NC(=O)[C@H]([C@@H](C)O)NC(=O)[C@H](CCC(=O)O)NC(=O)[C@H](CC(C)C)NC(=O)[C@H](Cc2c[nH]cn2)NC(=O)[C@H]([C@@H](C)O)N(C)C(=O)[C@H](CCC(N)=O)NC(=O)CNC(=O)[C@H]2CCCN2C(=O)[C@H](CCC(N)=O)NC(=O)[C@H]([C@@H](C)O)NC(=O)[C@H](C(C)C)NC(=O)[C@H](CCCNC(=N)N)NC1=O` [SEQ ID NO: 84]: the “fold lowered (decreased) binding affinity of the cyclic peptide” value is 5 fold.

Still in this assay, the particulars now being: FP inhibition constant normalized to WT value.
Turning to `CC[C@H](C)[C@@H]1NC(=O)[C@H]([C@@H](C)O)NC(=O)[C@H](CCCCN)NC(=O)[C@@H]2CCCN2C(=O)[C@H]([C@@H](C)O)NC(=O)CNC(=O)[C@H](CCCNC(=N)N)NC(=O)CNC(=O)[C@H]([C@@H](C)O)NC(=O)[C@H](Cc2ccccc2)NC(=O)[C@H]([C@@H](C)O)NC(=O)[C@H]([C@@H](C)O)NC(=O)[C@H](CCC(=O)O)NC(=O)[C@H](CC(C)C)NC(=O)[C@H](Cc2c[nH]cn2)NC(=O)[C@H]([C@@H](C)O)NC(=O)[C@H](CCC(N)=O)NC(=O)CNC(=O)[C@H]2CCCN2C(=O)[C@H](CCC(N)=O)NC(=O)[C@H]([C@@H](C)O)NC(=O)[C@H](C(C)C)NC(=O)[C@H](CCCNC(=N)N)NC1=O` [compound 34] (cyclo(THLETTFTGRGTPKTIRVTQ[dP]GQ)), the “Relative Ki (Ki mut/Ki WT)” value was found to be 0.66.
The same measure, in the same setting: with `CC[C@H](C)[C@@H]1NC(=O)[C@H]([C@@H](C)O)NC(=O)[C@H](CCCCN)NC(=O)[C@@H]2CCCN2C(=O)[C@H]([C@@H](C)O)NC(=O)CNC(=O)[C@H](CC(=O)O)NC(=O)CNC(=O)[C@H]([C@@H](C)O)NC(=O)[C@H](Cc2ccccc2)NC(=O)[C@H]([C@@H](C)O)NC(=O)[C@H]([C@@H](C)O)NC(=O)[C@H](CCC(=O)O)NC(=O)[C@H](CC(C)C)NC(=O)[C@H](Cc2c[nH]cn2)NC(=O)[C@H]([C@@H](C)O)NC(=O)[C@H](CCC(N)=O)NC(=O)CNC(=O)[C@H]2CCCN2C(=O)[C@H](CCC(N)=O)NC(=O)[C@H]([C@@H](C)O)NC(=O)[C@H](Cc2ccccc2)NC(=O)[C@H](CCCNC(=N)N)NC1=O` [compound 46] (cyclo(THLETTFTGDGTPKTIRFTQ[dP]GQ)) the figure was 0.89; with `CC[C@H](C)[C@@H]1NC(=O)[C@H]([C@@H](C)O)NC(=O)[C@H](CCCCN)NC(=O)[C@@H]2CCCN2C(=O)[C@H]([C@@H](C)O)NC(=O)CNC(=O)[C@H](CC(=O)O)NC(=O)CNC(=O)[C@H]([C@@H](C)O)NC(=O)[C@H](Cc2ccccc2)NC(=O)[C@H]([C@@H](C)O)NC(=O)[C@H]([C@@H](C)O)NC(=O)[C@H](CCC(=O)O)NC(=O)[C@H](CC(C)C)NC(=O)[C@H](Cc2ccccc2)NC(=O)[C@H]([C@@H](C)O)NC(=O)[C@H](CCC(N)=O)NC(=O)CNC(=O)[C@H]2CCCN2C(=O)[C@H](CCC(N)=O)NC(=O)[C@H]([C@@H](C)O)NC(=O)[C@H](C(C)C)NC(=O)[C@H](CCCNC(=N)N)NC1=O` [compound 27] (cyclo(TFLETTFTGDGTPKTIRVTQ[dP]GQ)), 0.79; with `CC[C@H](C)[C@@H]1NC(=O)[C@H]([C@@H](C)O)NC(=O)[C@H](CCCCN)NC(=O)[C@@H]2CCCN2C(=O)[C@H]([C@@H](C)O)NC(=O)CNC(=O)[C@@H]2CCCN2C(=O)CNC(=O)[C@H]([C@@H](C)O)NC(=O)[C@H](Cc2ccccc2)NC(=O)[C@H]([C@@H](C)O)NC(=O)[C@H]([C@@H](C)O)NC(=O)[C@H](CCC(=O)O)NC(=O)[C@H](CC(C)C)NC(=O)[C@H](Cc2c[nH]cn2)NC(=O)[C@H]([C@@H](C)O)NC(=O)[C@H](CCC(N)=O)NC(=O)CNC(=O)[C@H]2CCCN2C(=O)[C@H](CCC(N)=O)NC(=O)[C@H]([C@@H](C)O)NC(=O)[C@H](C(C)C)NC(=O)[C@H](CCCNC(=N)N)NC1=O` [compound 29] (cyclo(THLETTFTGPGTPKTIRVTQ[dP]GQ)), 1.60.
The same measure, in the same setting: with `CC[C@H](C)[C@@H]1NC(=O)[C@H](CC(N)=O)NC(=O)[C@H](CCCCN)NC(=O)[C@@H]2CCCN2C(=O)[C@H]([C@@H](C)O)NC(=O)CNC(=O)[C@H](CC(=O)O)NC(=O)CNC(=O)[C@H]([C@@H](C)O)NC(=O)[C@H](Cc2ccccc2)NC(=O)[C@H]([C@@H](C)O)NC(=O)[C@H]([C@@H](C)O)NC(=O)[C@H](CCC(=O)O)NC(=O)[C@H](CC(C)C)NC(=O)[C@H](Cc2c[nH]cn2)NC(=O)[C@H]([C@@H](C)O)NC(=O)[C@H](CCC(N)=O)NC(=O)CNC(=O)[C@H]2CCCN2C(=O)[C@H](CCC(N)=O)NC(=O)[C@H]([C@@H](C)O)NC(=O)[C@H](C(C)C)NC(=O)[C@H](CCCNC(=N)N)NC1=O` [compound 39] (cyclo(THLETTFTGDGTPKNIRVTQ[dP]GQ)) the figure was 12.59.

(Values after US20230220021A1, “CYCLIC PEPTIDE INHIBITORS OF PSD-95 AND USES THEREOF” (University of Copenhagen, priority 2020, published 2023).)
